Experimental findings from PubChem BioAssay AID1549 (Sanford-Burnham Center for Chemical Genomics, 2009) are described below.

The structures appear in SMILES notation. The source made the active and inactive calls. How the calls were made is not given here.

This assay concerns the target Influenza A virus M2 proton channel (A/TW/4845/1999 H1N1). The experiment in a line: M2 proton channel binding, NMR based, influenza A virus H1N1 strain (AID 1549). As to conditions: NMR binding screen, M2 protein.
In general, Kd refers to the concentration at which binding is half-saturated. Consider `O=C(Nn1cnnc1)c1ccccc1Cl`, for which the Kd is > 4 mM (inactive).

Take `Cc1cc(C(=O)Nc2cccnc2)no1`: the Kd is > 4 mM (inactive). As for `CSc1nc(=O)[nH]c2c1CCC2`, the Kd was > 4 mM (inactive). As for `Cc1ccc(-c2nnn(CC(=O)O)n2)cc1`, the Kd was > 4 mM (inactive). Regarding `CC(=O)c1cc(CN2C(=O)c3ccccc3C2=O)cs1`, the Kd was > 4 mM (inactive). Take `CN(C)C(=O)Oc1cccc(-c2nnco2)c1`: the Kd was > 4 mM (inactive).

On to `Cc1cc(C(=O)O)n[nH]1`, for which the Kd is > 4 mM (inactive). On to `O=C1CSC(=O)N1c1cccc(O)c1`, for which the Kd is > 4 mM (inactive). Take `O=C(O)c1ccccc1N1CCOCC1`: the Kd was > 4 mM (inactive). Then `C=C1CSc2nc(=O)c3c(C)c(C)sc3n21`, with > 4 mM (inactive); and `Cc1oc2nc3c(c(=O)[nH]c(=O)n3C)n2c1C`, with > 4 mM (inactive). With `O=C(c1ccc(N2CCNCC2)cc1)c1cccnc1`, the Kd was > 4 mM (inactive).

As for `NC(=O)CC1NC(=O)c2ccccc21` (stereo unspecified), the Kd is > 4 mM (inactive).

As to `Cc1cc(NC(=O)c2c(F)c(F)c(F)c(F)c2F)no1`, the Kd was > 4 mM (inactive). Regarding `O=c1[nH]c(N2CCOCC2)nc2ccccc12`, the Kd is > 4 mM (inactive).

For the compound `COC(=O)Nc1ccc2ncn(C)c(=O)c2c1`, the Kd was > 4 mM (inactive). As to `CN1CCN(c2ccc(N)cc2)CC1`, the Kd is > 4 mM (inactive). Then `NC1=NC(=O)/C(=C/c2cccs2)S1`, with > 4 mM (inactive). Consider `COc1cccc(-c2nc(-c3ccccn3)no2)c1OC`, for which the Kd is > 4 mM (inactive).

Take `NC(=O)c1cccc(N2C(=O)C=CC2=O)c1`: the Kd was > 4 mM (inactive). Regarding `CNC(=O)c1ccccc1-c1ccccc1`, the Kd is > 4 mM (inactive).

Regarding `Nn1cnn2c(SCc3ccccc3)nnc12`, the Kd is > 4 mM (inactive). `COc1cc(O)c2c(c1)C(=O)c1cc(C)cc(O)c1C2=O`: the Kd is > 4 mM (inactive). In the case of `C=C1C2CC[C@@]3(C)[C@H](c4ccoc4)OC(=O)C[C@]13O[C@H]1CC(O)C(C)(C)C(CC(=O)OC)[C@@]21C` (stereo partly specified), the Kd was > 4 mM (inactive). In the case of `O=C(Nc1cnccn1)c1cccnc1`, the Kd is > 4 mM (inactive). Consider `NC(=O)C1CCN(C(=S)c2ccccc2)CC1`, for which the Kd was > 4 mM (inactive). Regarding `NC(=O)C1CCCN1S(=O)(=O)c1ccc(F)cc1` (stereo unspecified), the Kd is > 4 mM (inactive).

Take `COc1ccc(C(=O)NNC(=S)NC(C)=O)cc1`: the Kd is > 4 mM (inactive). With `CC(=O)Oc1c(C)cc(O)c2ccccc12`, the Kd was > 4 mM (inactive). As to `CC(=O)Nc1ccc(C(=O)NC2CCSC2=O)cc1` (stereo unspecified), the Kd is > 4 mM (inactive).

Turning to `O=C(O)/C=C/C=C/c1ccccc1`, the Kd was > 4 mM (inactive).

Turning to `COc1ccccc1NC(=O)C1CCC(=O)N1` (stereo unspecified), the Kd was > 4 mM (inactive).

As to `CNc1nc(N)c(C(=O)C(C)(C)C)s1`, the Kd was > 4 mM (inactive). Then `O=C(O)C1CCN(c2ccc(C(F)(F)F)cn2)CC1`, with > 4 mM (inactive); and `O=S1(=O)CCC(NC(=S)Nc2ccccn2)C1` (stereo unspecified), with > 4 mM (inactive); and `O=C1CCc2ccccc2CN1`, with > 4 mM (inactive). In the case of `Cc1ccc(N2CCN(C(=O)c3ccccc3)CC2)c(C)c1`, the Kd was > 4 mM (inactive). Regarding `NCCN=C1NS(=O)(=O)c2ccccc21`, the Kd was > 4 mM (inactive). On to `COc1cc(NC(=O)c2ccccc2)c(C)cc1N`, for which the Kd is > 4 mM (inactive). Turning to `Nc1ccc2nsnc2c1`, the Kd was > 4 mM (inactive).

For the compound `Cc1c(C(=O)N2CCOCC2)oc2c1C(=O)CC(C)(C)C2`, the Kd is > 4 mM (inactive).

Consider `S=c1nc2c(n[nH]1)[nH]c1ccccc12`, for which the Kd was > 4 mM (inactive). With `O=C(Nc1cccc2cccnc12)c1cccnc1`, the Kd is > 4 mM (inactive). As to `O=C(Nn1cnnc1)c1csc2c1CCCC2`, the Kd was > 4 mM (inactive).

Take `CC(=O)Nn1cc2c(=O)n(C)c(=O)n(C)c2c1`: the Kd was > 4 mM (inactive). On to `O=C1Nc2ccccc2C1C1(O)C(=O)Nc2ccc(F)cc21` (stereo unspecified), for which the Kd is > 4 mM (inactive).

Consider `O=C(O)c1csc(-c2ccccc2)n1`, for which the Kd was > 4 mM (inactive). On to `S=C(NCC1CCCO1)NC1CC1` (stereo unspecified), for which the Kd was > 4 mM (inactive). Consider `Cc1cc(C)nc(N(C#N)Cc2ccccc2)n1`, for which the Kd was > 4 mM (inactive).

Take `CC(O)(C(=O)O)c1ccccc1` (stereo unspecified): the Kd is > 4 mM (inactive).

For `c1ccc(CCc2nc(-c3ccccn3)no2)cc1`, the Kd was > 4 mM (inactive). Then `Cc1nc2ccccc2c(=O)n1CCCO`, with > 4 mM (inactive); and `Cc1cc(C)n(S(=O)(=O)c2ccc(C(C)(C)C)cc2)n1`, with > 4 mM (inactive); and `O=C(O)C1C(=O)NCC1c1ccccc1` (stereo unspecified), with > 4 mM (inactive). Turning to `Cc1cc(NC(=O)c2cccc(S(C)(=O)=O)c2)no1`, the Kd was > 4 mM (inactive). `O=C1CSC(=Nc2cc(Cl)ccc2Cl)N1`: the Kd was > 4 mM (inactive). Regarding `Oc1ccc2c(c1)OCC1(O)Cc3cc(O)c(O)cc3C21` (stereo unspecified), the Kd was > 4 mM (inactive). On to `O=C1NC(=O)/C(=C\c2ccco2)S1`, for which the Kd is > 4 mM (inactive).

Turning to `CCc1c(C)[nH]c(=S)c(C(N)=O)c1C`, the Kd is > 4 mM (inactive). For the compound `Nc1nc2ccc(N3CCOCC3)cc2s1`, the Kd is > 4 mM (inactive).

As for `Nc1cc(=O)[nH]c(=S)n1CCc1ccccc1`, the Kd is > 4 mM (inactive). Then `C/C=C(/C)C(=O)O[C@@H]1Cc2c(ccc3ccc(=O)oc23)OC1(C)C`, with > 4 mM (inactive); and `CCCOn1nnnc1-c1ccccc1`, with > 4 mM (inactive); and `CSc1ccc(/C=c2\sc3ncnn3c2=O)cc1`, with > 4 mM (inactive). In the case of `NCc1n[nH]c(=O)c2ccccc12`, the Kd is > 4 mM (inactive). Then `Cc1ccc(-c2nc(-c3cccnc3)no2)c(C)c1`, with > 4 mM (inactive). Under `CCNC(=S)Nc1c(C)n(C)n(-c2ccccc2)c1=O` stands > 4 mM (inactive). For the compound `COc1c(O)cc2c(-c3ccccc3)cc(=O)oc2c1OC`, the Kd was > 4 mM (inactive). Under `O=c1oc2c(O)c(O)cc3c(=O)oc4c(O)c(O)cc1c4c23` stands > 4 mM (inactive); under `CC(C)(C)NC(=O)N1CCC(C(N)=O)CC1`, > 4 mM (inactive).

On to `CNc1nnc(CSc2nc(C)cc(C)n2)s1`, for which the Kd is > 4 mM (inactive). With `Cc1cc(C(=O)Nc2ccc3c(c2)OCCO3)c(C)o1`, the Kd was > 4 mM (inactive). Under `Cn1c(=O)c2c([nH]c(=O)n2C)n(C)c1=O` stands > 4 mM (inactive); under `Nc1cc(C(=O)O)ccc1N1CCCCCC1`, > 4 mM (inactive). As for `O=C(c1cccc(C(F)(F)F)c1)N1CCCC1`, the Kd was > 4 mM (inactive). For the compound `O=C(O)[C@H](O)[C@@](O)(Cc1ccc(O)cc1)C(=O)O`, the Kd was > 4 mM (inactive). As to `O=C1N=c2ccccc2=C1c1sc(=S)[nH]c1O`, the Kd is > 4 mM (inactive).

`CC(=O)Nc1ccc2c(c1)CCC2=O`: the Kd was > 4 mM (inactive). Regarding `COc1cc([C@@H]2c3cc4c(cc3[C@H](OC(C)=O)[C@H]3COC(=O)[C@@H]23)OCO4)cc(OC)c1OC`, the Kd was > 4 mM (inactive).

Turning to `Cc1ccccc1OCC(=O)O`, the Kd was > 4 mM (inactive). Regarding `CN1C(=O)Cc2cc(S(N)(=O)=O)ccc21`, the Kd was > 4 mM (inactive). Regarding `c1cnc(N2CCSCC2)nc1`, the Kd was > 4 mM (inactive).

As for `CCOC(=O)c1cc2ccccc2oc1=O`, the Kd was > 4 mM (inactive). On to `C=CCn1c(-c2ccc(O)cc2)n[nH]c1=S`, for which the Kd was > 4 mM (inactive). `NC(=O)Cn1nc(-c2ccco2)ccc1=O`: the Kd was > 4 mM (inactive). Under `Cc1nc2sc3c(c2c(=N)n1N)CC(C)(C)OC3` stands > 4 mM (inactive); under `O=C(NC(=S)NC1CCS(=O)(=O)C1)c1ccccc1` (stereo unspecified), > 4 mM (inactive); under `Nc1nc2[nH]c(=O)c(=O)[nH]c2c(=O)[nH]1`, > 4 mM (inactive). Consider `CC1CCN(C(=O)c2cc3ccccc3o2)CC1`, for which the Kd is > 4 mM (inactive). Under `O=c1c2ccccc2oc2ccccc12` stands > 4 mM (inactive); under `CC1(C)CCC(C)(C)c2cc(C(=O)O)ccc21`, > 4 mM (inactive). As for `C(=C\c1ccccc1)/C=N/n1cnnc1`, the Kd was > 4 mM (inactive). Then `O=C(Nc1ncccn1)c1cccc(F)c1`, with > 4 mM (inactive). Turning to `O=C(Nc1cccnc1)c1c(F)cccc1F`, the Kd was > 4 mM (inactive). As to `Nc1nnc(SCc2ccccc2Cl)s1`, the Kd was > 4 mM (inactive). Consider `CC(=O)Nc1nnc(-c2ccncc2)s1`, for which the Kd is > 4 mM (inactive).

With `Cc1cccc(NC(=O)c2ccc(=O)[nH]n2)c1`, the Kd is > 4 mM (inactive). On to `O=C(O)CC1C(=O)NCCN1Cc1cccs1` (stereo unspecified), for which the Kd was > 4 mM (inactive). For `O=C1c2ccccc2C(=O)N1CCc1ccccn1`, the Kd was > 4 mM (inactive). Turning to `NC(=O)CN1C(=O)c2cccc3cccc1c23`, the Kd is > 4 mM (inactive). As to `Nc1ccc2nccnc2c1`, the Kd was > 4 mM (inactive).

For `O=C(CSc1ccccc1)N1CCC2(CC1)OCCO2`, the Kd is > 4 mM (inactive). For the compound `CC1CC2(NC(=O)NC2=O)C(C)CN1C` (stereo unspecified), the Kd is > 4 mM (inactive). Then `Nc1cccc2nsnc12`, with > 4 mM (inactive); and `CCN1C[C@@]2(COC)C3[C@@H](OC)[C@H]4[C@@H]1[C@]3(C(OC)C[C@H]2O)C1C[C@@]2(O)[C@H](OC(=O)c3ccccc3)C1[C@]4(OC(C)=O)[C@@H](O)[C@@H]2OC` (stereo partly specified), with > 4 mM (inactive); and `O=c1c2ccccc2[nH]c2ncccc12`, with > 4 mM (inactive).
